Data taken from patent US6737383B1, “Herbicidal oxadiazolidines” (priority 1999, dated 2004).

Columns and labels:
bedstraw = test: Test B pre/postemergence bedstraw; type: in vivo, Galium aparine
Summary of the method: (§1)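 Herbicidal effect was estimated by eye on a ten-point control scale after plants spent twelve to sixteen days in a greenhouse following soil or foliar treatment. Foliar sprays targeted plants at one to four leaves; all doses were formulated in a non-phytotoxic solvent with surfactant.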

blackgrass = test: Test B pre/postemergence blackgrass; type: in vivo, Alopecurus myosuroides
Summary of the method: as §1

surinam grass = test: Test B pre/postemergence surinam grass; type: in vivo, Brachiaria decumbens
Summary of the method: as §1

cocklebur = test: Test B pre/postemergence cocklebur; type: in vivo, Xanthium strumarium
Summary of the method: as §1

corn = test: Test B pre/postemergence corn; type: in vivo, Zea mays
Summary of the method: as §1

crabgrass = test: Test B pre/postemergence crabgrass; type: in vivo, Digitaria sanguinalis
Summary of the method: as §1

giant foxtail = test: Test B pre/postemergence giant foxtail; type: in vivo, Setaria faberii
Summary of the method: as §1

morningglory = test: Test B pre/postemergence morningglory; type: in vivo, Ipomoea hederacea
Summary of the method: as §1

pigweed = test: Test B pre/postemergence pigweed; type: in vivo, Amaranthus retroflexus
Summary of the method: as §1

rape = test: Test B pre/postemergence rape; type: in vivo, Brassica napus
Summary of the method: as §1

soybean = test: Test B pre/postemergence soybean; type: in vivo, Glycine max
Summary of the method: as §1

sugar beet = test: Test B pre/postemergence sugar beet; type: in vivo, Beta vulgaris
Summary of the method: as §1

velvetleaf = test: Test B pre/postemergence velvetleaf; type: in vivo, Abutilon theophrasti
Summary of the method: as §1

wheat = test: Test B pre/postemergence wheat; type: in vivo, Triticum aestivum
Summary of the method: as §1

wild oat = test: Test B pre/postemergence wild oat; type: in vivo, Avena fatua
Summary of the method: as §1

purple nutsedge = test: Test B pre/postemergence purple nutsedge; type: in vivo, Cyperus rotundus
Summary of the method: as §1

rice = test: Test B flood test rice; type: in vivo, Oryza sativa; conditions: Pre-emergence
Summary of the method: (§2)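 Flood test on plants grown to the 2-leaf stage; treated plants kept in greenhouse twelve to sixteen days, then visually rated against controls on a 0 (no effect) to 10 (complete control) scale.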

smallflower flatsedge = test: Test B flood test smallflower flatsedge; type: in vivo, Cyperus difformis; conditions: Pre-emergence
Summary of the method: as §2

duck salad = test: Test B flood test duck salad; type: in vivo, Heteranthera limosa; conditions: Pre-emergence
Summary of the method: as §2

bamyardgrass = test: Test B flood test barnyardgrass; type: in vivo, Echinochloa crus-galli; conditions: Pre-emergence
Summary of the method: as §2

[1] = Preemergence, Rate 62 g/ha, scale of 0 to 10 where 0 is no effect and 10 is complete control
[2] = Preemergence, Rate 250 g/ha, scale of 0 to 10 where 0 is no effect and 10 is complete control
[3] = Preemergence, Rate 500 g/ha, scale of 0 to 10 where 0 is no effect and 10 is complete control
[4] = Rate 62 g/ha, Postemergence, scale of 0 to 10 where 0 is no effect and 10 is complete control
[5] = Rate 125 g/ha, Postemergence, scale 0 to 10
[6] = Rate 125 g/ha, Preemergence, scale of 0 to 10 where 0 is no effect and 10 is complete control
[7] = Rate 500 g/ha, Postemergence, scale 0 to 10, 0 no effect, 10 complete control
[8] = Rate 1000 g/ha, scale 0 to 10 (0 no effect, 10 complete control)
[9] = Rate 125 g/ha, flood test species, scale 0 to 10 where 0 is no effect and 10 is complete control
[10] = Rate 250 g/ha, flood-test species, scale 0 to 10, 0 is no effect, 10 is complete control
[11] = Rate 500 g/ha, flood test species, scale 0 to 10 (0 no effect, 10 complete control)

## CCOC(=O)C(C)N(C(=O)n1oc(=O)n(CC)c1=O)c1ccc(F)cc1 (stereo not drawn) [Compound 248]
bedstraw; [1]
  Bedstraw plant response rating: 0
bedstraw; [2]
  Bedstraw plant response rating: 0
bedstraw; [3]
  Plant response rating, Bedstraw: 0
bedstraw; [4]
  Bedstraw plant response rating: 0
bedstraw; [5]
  Bedstraw plant response rating: 0
bedstraw; [6]
  Bedstraw plant response rating: 0
bedstraw; Rate 250 g/ha, Postemergence
  Plant response rating (0 to 10; 0 is no effect, 10 is complete control), Bedstraw: 0
bedstraw; [7]
  Bedstraw plant response rating: 0
blackgrass; [1]
  Blackgrass plant response rating: 0
blackgrass; [2]
  Blackgrass plant response rating: 0
blackgrass; [3]
  Plant response rating, Blackgrass: 0
blackgrass; [4]
  Blackgrass plant response rating: 0
blackgrass; [5]
  Blackgrass plant response rating: 0
blackgrass; [6]
  Blackgrass plant response rating: 0
blackgrass; Rate 250 g/ha, Postemergence
  Plant response rating (0 to 10; 0 is no effect, 10 is complete control), Blackgrass: 0
blackgrass; [7]
  Blackgrass plant response rating: 0
Surinam grass; [1]
  B. signalgrass plant response rating: 0
Surinam grass; [2]
  B. signalgrass plant response rating: 0
Surinam grass; [3]
  Plant response rating, B. signalgrass: 0
Surinam grass; [4]
  B. signalgrass plant response rating: 0
Surinam grass; Rate 125 g/ha, Postemergence, scale 0 (no effect) to 10 (complete control)
  B. signalgrass plant response rating: 0
Surinam grass; [6]
  B. signalgrass plant response rating: 0
Surinam grass; Rate 250 g/ha, Postemergence
  Plant response rating (0 to 10; 0 is no effect, 10 is complete control), B. signalgrass: 0
Surinam grass; [7]
  B. signalgrass plant response rating: 0
cocklebur; [1]
  Cocklebur plant response rating: 0
cocklebur; [2]
  Cocklebur plant response rating: 0
cocklebur; [3]
  Plant response rating, Cocklebur: 0
cocklebur; [4]
  Cocklebur plant response rating: 0
cocklebur; [5]
  Cocklebur plant response rating: 0
cocklebur; [6]
  Cocklebur plant response rating: 0
cocklebur; Rate 250 g/ha, Postemergence
  Plant response rating (0 to 10; 0 is no effect, 10 is complete control), Cocklebur: 0
cocklebur; [7]
  Cocklebur plant response rating: 0
corn; [1]
  Corn plant response rating: 0
corn; [2]
  Corn plant response rating: 0
corn; [3]
  Plant response rating, Corn: 0
corn; [4]
  Corn plant response rating: 0
corn; [5]
  Corn plant response rating: 0
corn; [6]
  Corn plant response rating: 0
corn; Rate 250 g/ha, Postemergence
  Plant response rating (0 to 10; 0 is no effect, 10 is complete control), Corn: 0
corn; [7]
  Corn plant response rating: 0
crabgrass; [1]
  Crabgrass plant response rating: 0
crabgrass; [2]
  Crabgrass plant response rating: 0
crabgrass; [3]
  Plant response rating, Crabgrass: 0
crabgrass; [6]
  Crabgrass plant response rating: 0
crabgrass; Rate 250 g/ha, Postemergence
  Plant response rating (0 to 10; 0 is no effect, 10 is complete control), Crabgrass: 0
crabgrass; [7]
  Crabgrass plant response rating: 0
Giant foxtail; [1]
  Giant foxtail plant response rating: 0
Giant foxtail; [2]
  Giant foxtail plant response rating: 0
Giant foxtail; [3]
  Plant response rating, Giant foxtail: 0
Giant foxtail; [6]
  Giant foxtail plant response rating: 0
Giant foxtail; Rate 250 g/ha, Postemergence
  Plant response rating (0 to 10; 0 is no effect, 10 is complete control), Giant foxtail: 0
Giant foxtail; [7]
  Giant foxtail plant response rating: 0
morningglory; [1]
  Morningglory plant response rating: 0
morningglory; [2]
  Morningglory plant response rating: 0
morningglory; [3]
  Plant response rating, Morningglory: 0
morningglory; [6]
  Morningglory plant response rating: 0
morningglory; Rate 250 g/ha, Postemergence
  Plant response rating (0 to 10; 0 is no effect, 10 is complete control), Morningglory: 0
morningglory; [7]
  Morningglory plant response rating: 0
pigweed; [1]
  Redroot pigweed plant response rating: 0
pigweed; [2]
  Redroot pigweed plant response rating: 0
pigweed; [3]
  Plant response rating, Redroot pigweed: 0
pigweed; [6]
  Redroot pigweed plant response rating: 0
pigweed; Rate 250 g/ha, Postemergence
  Plant response rating (0 to 10; 0 is no effect, 10 is complete control), Redroot pigweed: 0
pigweed; [7]
  Redroot pigweed plant response rating: 0
rape; [1]
  Rape plant response rating: 0
rape; [2]
  Rape plant response rating: 0
rape; [3]
  Plant response rating, Rape: 0
rape; [6]
  Rape plant response rating: 0
rape; Rate 250 g/ha, Postemergence
  Plant response rating (0 to 10; 0 is no effect, 10 is complete control), Rape: 0
rape; [7]
  Rape plant response rating: 0
soybean; [1]
  Soybean plant response rating: 0
soybean; [2]
  Soybean plant response rating: 0
soybean; [3]
  Plant response rating, Soybean: 0
soybean; [6]
  Soybean plant response rating: 0
soybean; [7]
  Soybean plant response rating: 1
Sugar beet; [1]
  Sugarbeets plant response rating: 0
Sugar beet; [2]
  Sugarbeets plant response rating: 0
Sugar beet; [3]
  Plant response rating, Sugarbeets: 0
Sugar beet; [6]
  Sugarbeets plant response rating: 0
Sugar beet; [7]
  Sugarbeets plant response rating: 0
velvetleaf; [1]
  Velvetleaf plant response rating: 0
velvetleaf; [2]
  Velvetleaf plant response rating: 0
velvetleaf; [3]
  Plant response rating, Velvetleaf: 0
velvetleaf; [6]
  Velvetleaf plant response rating: 0
velvetleaf; [7]
  Velvetleaf plant response rating: 0
wheat; [1]
  Wheat plant response rating: 0
wheat; [2]
  Wheat plant response rating: 0
wheat; [3]
  Plant response rating, Wheat: 0
wheat; [6]
  Wheat plant response rating: 0
wheat; [7]
  Wheat plant response rating: 0
Wild oat; [1]
  Wild oats plant response rating: 0
Wild oat; [2]
  Wild oats plant response rating: 0
Wild oat; [3]
  Plant response rating, Wild oats: 0
Wild oat; [6]
  Wild oats plant response rating: 0
Wild oat; [7]
  Wild oats plant response rating: 0
Purple nutsedge; [1]
  Nutsedge plant response rating: 0
Purple nutsedge; [2]
  Nutsedge plant response rating: 0
Purple nutsedge; [3]
  Plant response rating, Nutsedge: 0
Purple nutsedge; [6]
  Nutsedge plant response rating: 0
Purple nutsedge; Rate 250 g/ha, Postemergence
  Plant response rating (0 to 10; 0 is no effect, 10 is complete control), Nutsedge: 0
Purple nutsedge; [7]
  Nutsedge plant response rating: 0
rice; [8]
  Rice plant response rating: 0
rice; [9]
  Rice plant response rating: 0
rice; [10]
  Rice plant response rating: 0
rice; [11]
  Rice plant response rating: 0
Smallflower flatsedge; [8]
  S. Flatsedge plant response rating: 0
Smallflower flatsedge; [9]
  S. Flatsedge plant response rating: 0
Smallflower flatsedge; [10]
  S. Flatsedge plant response rating: 0
Smallflower flatsedge; [11]
  S. Flatsedge plant response rating: 0
Duck salad; [8]
  Ducksalad plant response rating: 0
Duck salad; [9]
  Ducksalad plant response rating: 0
Duck salad; [10]
  Ducksalad plant response rating: 0
Duck salad; [11]
  Ducksalad plant response rating: 0
bamyardgrass; [8]
  Barnyardgrass plant response rating: 0
bamyardgrass; [9]
  Barnyardgrass plant response rating: 0
bamyardgrass; [10]
  Barnyardgrass plant response rating: 0
bamyardgrass; [11]
  Barnyardgrass plant response rating: 0
